Drawing on ChEMBL document CHEMBL3886713, “Aromatic heterocyclic derivative having TRPV4-inhibiting activity” (2016), this text covers IC50 and Ki for three compounds.

Transient receptor potential cation channel subfamily V member 4, sequence (Q9HBA0 whole entry): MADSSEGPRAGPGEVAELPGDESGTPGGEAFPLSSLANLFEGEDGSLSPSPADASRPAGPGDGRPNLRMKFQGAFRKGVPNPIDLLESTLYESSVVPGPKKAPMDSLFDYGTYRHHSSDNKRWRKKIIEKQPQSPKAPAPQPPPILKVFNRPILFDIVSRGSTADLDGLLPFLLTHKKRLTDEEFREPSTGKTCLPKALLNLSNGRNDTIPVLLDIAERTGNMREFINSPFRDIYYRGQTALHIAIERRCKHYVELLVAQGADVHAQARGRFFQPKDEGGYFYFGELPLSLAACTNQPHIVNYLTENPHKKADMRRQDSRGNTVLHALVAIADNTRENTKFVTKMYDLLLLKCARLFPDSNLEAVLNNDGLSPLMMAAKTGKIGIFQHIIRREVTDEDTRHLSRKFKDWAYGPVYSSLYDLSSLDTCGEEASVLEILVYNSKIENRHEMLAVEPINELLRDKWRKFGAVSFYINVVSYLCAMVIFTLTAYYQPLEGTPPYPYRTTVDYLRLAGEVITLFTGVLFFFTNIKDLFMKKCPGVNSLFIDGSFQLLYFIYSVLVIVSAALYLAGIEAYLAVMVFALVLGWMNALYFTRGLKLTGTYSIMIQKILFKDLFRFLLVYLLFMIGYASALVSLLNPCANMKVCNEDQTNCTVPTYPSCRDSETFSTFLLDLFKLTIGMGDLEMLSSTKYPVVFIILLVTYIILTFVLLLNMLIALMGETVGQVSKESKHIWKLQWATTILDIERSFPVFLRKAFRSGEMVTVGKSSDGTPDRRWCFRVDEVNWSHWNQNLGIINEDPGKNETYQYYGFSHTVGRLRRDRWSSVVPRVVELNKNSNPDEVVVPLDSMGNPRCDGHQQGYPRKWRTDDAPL

The experiment has as its target Transient receptor potential cation channel subfamily V member 4 (Homo sapiens, UniProt Q9HBA0). Description: Inhibition Assay: Test Example 1: (1) The TRPV4 inhibitory activity was measured using CHO-K1 cells stably expressing human TRPV4 (hTRPV4/CHO cells). (2) In the day before the experimental day, frozen cell were thawed and washed with the culture medium (MEM-α, 10% FBS, 2 mmol/L GlutaMax, 50 unit Penicillin, 50 μg/mL Streptomycin). Then cells were suspended in the culture medium. (3) The 384-well plates which hTRPV4/CHO cells were seeded at densities of 4000 cells/well in the culture medium and cultured in a CO2 incubator in the presence of 5% CO2 at 37° C. for overnight was used as assay plates. (4) The assay plate was washed with assay buffer (Hanks, 20 mmol/L HEPES, 2.5 mmol/L probenecid, pH7.4), and the buffer were remained at 20 μL/well. (5) 10 μl of dye loading buffer (9 μmol/L Fluo 4-AM, 0.09% Pluronic F-127/assay buffer) was added to each well, then the assay plate was incubated in a CO2 incubator in the presence of 5% CO2 at 37° C. for one hour. (final 3 μmol/L Fluo4-AM). (6) The assay plate was washed with the assay buffer, and the buffers were remained at 20 μL/well. Then the assay plate was incubated for 10 min at room temperature. (7) Diluted compound solution was dispensed to each well in the compound plate, and mixed with built-in Pipette and Mixer of the Fluorescence analysis system FLIPR TETRA (Molecular devices). (8) After incubation for 5 min, 20 μL of 4α-PDD solution were applied to each well of assay plate and mixed with the FLIPR TETRA. (final 1 Î¼mol/L 4α-PDD). (9) The fluorescent intensity was measured with FLIPR TETRA system for 10 min from the point of time addition the compound solution, at Ex 470-495 nm, Em 515-575 nm wavelength. The class given is cell-based.
With `Cc1c(C(=O)Nc2cccc(C(F)(F)F)c2)nc(-c2ccccc2)n1CCCN1CCOCC1`, the concentration for half-maximal inhibition (IC50) is 0.71 µM and the Ki was determined as 0.32 µM.

As for `Cc1c(S(=O)(=O)NCc2cccc(C(F)(F)F)c2)cc(C(C)(C)C)n1CCCN1CCNCC1`, the IC50 came to 8.9 µM and the Ki turned out to be 3.1 µM.

On to `CNCCCn1c(C(C)(C)C)cc(S(=O)(=O)NCc2cccc(C(F)(F)F)c2)c1C`, for which the IC50 was 7 µM and the Ki came to 2.4 µM.
